Reference: patent US11679112B2, “Cancer treatments using combinations of CDK and ERK inhibitors” (BIOMED VALLEY DISCOVERIES, INC., priority 2013, dated 2023)

Tests used:
[1] = tested on: A549 cells; assay: Single agent proliferation assay, CellTiter-Glo, A549; format: cell-based; conditions: Homo sapiens; for IC50: 72 h, read-out: Relative IC50
Method: (§1) Cells were seeded in 96-well plates at the densities indicated in Table 4 in RPMI containing 10% FBS and allowed to adhere overnight prior to addition of compound or vehicle control. Compounds were prepared from DMSO stocks to give the desired final concentrations. The final DMSO concentration was constant at 0.1%. Test compounds were incubated with the cells for 72 h at 37° C., 5% CO2 in a humidified atmosphere. CellTiter-Glo® reagent (Promega, Madison, Wis.) was added according to manufacturer's instructions and luminescence detected using the BMG FLUOstar plate reader (BMG Labtech, Ortenberg, Germany). A duplicate set of assay plates was incubated with 10 μg/ml Hoechst 33342 stain (Invitrogen, Grant Island, N.Y.) in complete growth medium for 1 h at 37° C., 5% CO2 in a humidified atmosphere. The medium was then removed and replaced with PBS and fluorescence detected using a BMG FLUOstar Omega plate reader (BMG labtech, Ortenberg, Germany). The average media only background value was deducted and the data analysed using a 4-parameter logistic equation in GraphPad Prism (GraphPad Software, La Jolla, Calif.).
(§2) The effects of BVD-523, the CDK4/6 inhibitors, another ERK inhibitor (SCH772984), and a reference MEK inhibitor (Trametinib), as single agents on cell viability was assessed after 72 h using two methods (FIGS. 2A-2L). The first method was by quantitating cellular ATP levels using CellTiter-Glo® (Promega, Madison, Wis.). The second method was by quantitating total amount of DNA in an assay well after staining the DNA with Hoechst stain.

[2] = tested on: A549 cells; assay: Single agent proliferation assay, Hoechst stain, A549; format: cell-based; conditions: Homo sapiens, 72 h, read-out: Relative IC50
Method: as §1, §2

[3] = tested on: H2122 cells; assay: Single agent proliferation assay, CellTiter-Glo, H2122; format: cell-based; conditions: Homo sapiens; for IC50: NCI-H2122, 72 h, read-out: Relative IC50
Method: as §1, §2

[4] = tested on: H2122 cells; assay: Single agent proliferation assay, Hoechst stain, H2122; format: cell-based; conditions: Homo sapiens, NCI-H2122, 72 h, read-out: Relative IC50
Method: as §1, §2

[5] = tested on: H1437 cells; assay: Single agent proliferation assay, CellTiter-Glo, H1437; format: cell-based; conditions: Homo sapiens; for IC50: NCI-H1437, 72 h, read-out: Relative IC50; for inhibition at 3 µM: NCI-H1437, @3 μM
Method: as §1, §2

[6] = tested on: H1437 cells; assay: Single agent proliferation assay, Hoechst stain, H1437; format: cell-based; conditions: Homo sapiens; for IC50: NCI-H1437, 72 h, read-out: Relative IC50
Method: as §1, §2

[7] = tested on: H226 cells; assay: Single agent proliferation assay, CellTiter-Glo, H226; format: cell-based; conditions: Homo sapiens; for inhibition at 10 µM: NCI-H226, @10 μM; for inhibition at 3 µM: NCI-H226, @3 μM
Method: as §1, §2

[8] = tested on: H226 cells; assay: Single agent proliferation assay, Hoechst stain, H226; format: cell-based; conditions: Homo sapiens; for IC50: NCI-H226, 72 h, read-out: Relative IC50
Method: as §1, §2

[9] = tested on: MAPK signaling components in A375 cells; assay: Western blot of MAPK, cell cycle and apoptosis signaling in A375 cells; format: cell-based, human
Method: (§3) For Western blot studies, HCT116 cells (5×10^6) were seeded into 10 cm dishes in McCoy's 5A plus 10% FBS. A375 cells (2.5×10^6) were seeded into 10 cm dishes in DMEM plus 10% FBS. Cells were allowed to adhere overnight prior to addition of the indicated amount of test compound (BVD-523) or vehicle control. Cells were treated for either 4 or 24 hours before isolation of whole-cell protein lysates, as specified below. Cells were harvested by trypsinisation, pelleted and snap frozen. Lysates were prepared with RIPA (Radio-Immunoprecipitation Assay) buffer, clarified by centrifugation and quantitated by bicinchoninic acid assay (BCA) assay. 20-50 μg of protein was resolved by SDS-PAGE electrophoresis, blotted onto PVDF membrane and probed using the antibodies detailed in Table 2 (for the 4-hour treatment) and Table 3 (for the 24-hour treatment) below.

[10] = tested on: MAPK signaling in HCT-116 cells; assay: Western blot of MAPK signaling in HCT116 cells; format: cell-based, human; conditions: HCT116, 4 hours, micromolar concentrations
Method: as §3

[11] = tested on: ERK; conditions: Morris et al., 2013; cited from earlier work
[12] = read-out: Maximal percentage inhibition

SMILES	IC50 [1] [nM]	IC50 [2] [nM]	IC50 [3] [nM]	IC50 [4] [nM]	IC50 [5] [nM]	IC50 [6] [nM]	IC50 [8] [nM]	inhibition at 10 µM [7, 12] [%]	inhibition at 3 µM [5, 12] [%]	inhibition at 3 µM [7, 12] [%]	other results
CC(C)Nc1cc(-c2c[nH]c(C(=O)N[C@H](CO)c3cccc(Cl)c3)c2)c(Cl)cn1 [BVD-523]	730	590	450	450	1200	1400	–	34	–	–	inhibition at 10 µM ([8]; NCI-H226, @10 μM, read-out: Maximal percentage inhibition): 58%; cyclin-D1 level ([9]; 24 hours): greatly reduced; phosphorylation of ERK-dependent residues (T359/S363) in RSK 1 and 2 proteins ([9]; A375, 4 hours, micromolar concentrations): reduced; Bim-EL level ([9]; A375, prolonged treatment): increased; increased apoptosis (PARP cleavage) ([9]; A375, prolonged treatment): not observed; MAPK feedback phosphatase DUSP6 level ([9]; BRAF mutant cell line, 24 hours): greatly reduced; concentrations required to induce changes in substrate phosphorylation and effector targets of ERK ([9]; RAF and RAS mutant cancer cells, acute and prolonged treatment): low micromolar range; effect on autophosphorylation of ERK ([9]; see FIG. 1): allows for the autophosphorylation of ERK while still inhibiting ERK; phosphorylation of ERK-dependent residues (T359/S363) in RSK 1 and 2 proteins [10]: reduced
CN(C)C(=O)c1cc2cnc(Nc3ccc(N4CCNCC4)cn3)nc2n1C1CCCC1 [LEE-011]	–	700	–	450	–	2800	370	32	–	–	inhibition at 10 µM ([1]; @10 μM, read-out: Maximal percentage inhibition): 49%; inhibition at 10 µM ([3]; NCI-H2122, @10 μM, read-out: Maximal percentage inhibition): 44%; inhibition at 10 µM ([5]; NCI-H1437, @10 μM, read-out: Maximal percentage inhibition): 30%
CC(=O)c1c(C)c2cnc(Nc3ccc(N4CCNCC4)cn3)nc2n(C2CCCC2)c1=O [Palbociclib]	–	130	–	150	–	220	56	–	29	20	inhibition at 3 µM ([1]; @3 μM, read-out: Maximal percentage inhibition): 41%; inhibition at 3 µM ([3]; NCI-H2122, @3 μM, read-out: Maximal percentage inhibition): 48%
O=C(Nc1ccc2[nH]nc(-c3ccncc3)c2c1)[C@@H]1CCN(CC(=O)N2CCN(c3ccc(-c4ncccn4)cc3)CC2)C1 [SCH772984]	1100	740	630	530	–	–	–	–	57	35	inhibition at 3 µM ([6]; NCI-H1437, @3 μM, read-out: Maximal percentage inhibition): 63%; inhibition at 3 µM ([8]; NCI-H226, @3 μM, read-out: Maximal percentage inhibition): 49%; effect on autophosphorylation of ERK [11]: inhibits autophosphorylation of ERK

These reach a lower IC50 [2]. Values come first.

IC50 [1] [nM]	IC50 [2] [nM]	IC50 [3] [nM]	IC50 [4] [nM]	IC50 [5] [nM]	IC50 [6] [nM]	IC50 [8] [nM]	SMILES	inhibition at 10 µM [7, 12] [%]	inhibition at 3 µM [5, 12] [%]	inhibition at 3 µM [7, 12] [%]	other results
5	5	3	3	2	3	2	CC(=O)Nc1cccc(-n2c(=O)n(C3CC3)c(=O)c3c(Nc4ccc(I)cc4F)n(C)c(=O)c(C)c32)c1 [Trametinib]	–	–	–	inhibition at 1 µM ([7]; NCI-H226, @1 μM, read-out: Maximal percentage inhibition): 57%
3	2	3	2	7	3	3	CC(=O)O[C@H]1C(=O)[C@@]2(C)[C@H]([C@H](OC(=O)c3ccccc3)[C@]3(O)C[C@H](OC(=O)[C@H](O)[C@@H](NC(=O)c4ccccc4)c4ccccc4)C(C)=C1C3(C)C)[C@]1(OC(C)=O)CO[C@@H]1C[C@@H]2O [Paclitaxcel, Paclitaxel]	–	–	–	IC50 ([7]; NCI-H226, 72 h, read-out: Relative IC50): 3 nM
